Source: BindingDB's records for patent US20260034094 (Kojin Therapeutics, 2026)

target: T1, Glutamate--cysteine ligase catalytic subunit (Homo sapiens, UniProt P48506); experiment: GCL Enzyme Profiling Assay
T1 sequence (P48506 whole entry): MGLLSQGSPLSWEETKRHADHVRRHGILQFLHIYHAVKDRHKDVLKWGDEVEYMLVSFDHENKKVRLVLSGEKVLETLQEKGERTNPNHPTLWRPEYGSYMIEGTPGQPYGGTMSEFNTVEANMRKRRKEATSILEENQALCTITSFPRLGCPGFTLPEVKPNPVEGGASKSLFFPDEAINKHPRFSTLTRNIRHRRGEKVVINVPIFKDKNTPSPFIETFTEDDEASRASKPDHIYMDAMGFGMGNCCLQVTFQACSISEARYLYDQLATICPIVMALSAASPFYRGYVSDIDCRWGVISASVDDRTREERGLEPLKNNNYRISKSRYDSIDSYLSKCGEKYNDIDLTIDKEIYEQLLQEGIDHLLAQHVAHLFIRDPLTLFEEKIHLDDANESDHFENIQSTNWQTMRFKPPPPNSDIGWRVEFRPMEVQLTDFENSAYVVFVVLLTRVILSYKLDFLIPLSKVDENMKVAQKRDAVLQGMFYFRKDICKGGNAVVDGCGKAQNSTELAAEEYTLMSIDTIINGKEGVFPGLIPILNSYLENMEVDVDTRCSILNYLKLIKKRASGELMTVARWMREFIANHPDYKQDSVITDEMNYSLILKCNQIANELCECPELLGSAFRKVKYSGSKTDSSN
Method: Compound in pure DMSO was stamped in assay plates (Greiner black 384-well) or appropriate containers using a D300e digital dispenser (TECAN) and the final DMSO concentration was normalized to 1%. A 5 mL, or in the present case, 5 μL mixture of human recombinant GCL (final concentration: 5 nM) and ATP (final concentration: 0.6 mM) was added and the solution was incubated at room temperature (22° C.) for 1 h. […] The reaction was stopped after 1 h or in the present case, 2 h by addition of 5 mL, or in the present case, 5 μL ADP GLO Reagent (Promega). The resulting solution was incubated for 2 h at room temperature. This was then followed by addition of 5 mL, or in the present case, 5 μL ADP GLO Detection. After incubation at room temperature for 30 min, the plates were read on a plate reader (PheraStar) using a luminescence protocol to quantify the GCL enzyme activity from each reaction solution.

| Compound | IC50 |
| --- | --- |
| N=S(=O)(CCC(c1ccc(C2=CCNCC2)cc1)C(F)(F)F)CC[C@H](N)C(=O)O (some centres undefined) [US20260034094, Compound 259] | < 20 µM |
| C=C(c1ccc(C(CCS(=N)(=O)CC[C@H](N)C(=O)O)C(F)(F)F)cc1)C(F)(F)F (some centres undefined) [US20260034094, Compound 260] | < 20 µM |
| C=Cc1ccc(C(CCS(=N)(=O)CC[C@H](N)C(=O)O)C(F)(F)F)cc1 (some centres undefined) [US20260034094, Compound 261] | < 20 µM |
| C=C(C)c1ccc(C(CCS(=N)(=O)CC[C@H](N)C(=O)O)C(F)(F)F)cc1 (some centres undefined) [US20260034094, Compound 262] | < 20 µM |
| CC(C)(O)c1ccc(C(CCS(=N)(=O)CC[C@H](N)C(=O)O)C(F)(F)F)cc1 (some centres undefined) [US20260034094, Compound 263] | < 20 µM |
| COc1ccc(-c2ccc(C(CCS(=N)(=O)CC[C@H](N)C(=O)O)C(F)(F)F)cc2)c(Cl)c1 (some centres undefined) [US20260034094, Compound 268] | < 20 µM |
| N=S(=O)(CCC(c1ccc(-c2ccc(Cl)cc2Cl)cc1)C(F)(F)F)CC[C@H](N)C(=O)O (some centres undefined) [US20260034094, Compound 269] | < 20 µM |
| N=S(=O)(CCC(c1ccc(-c2ccc(O)cc2Cl)cc1)C(F)(F)F)CC[C@H](N)C(=O)O (some centres undefined) [US20260034094, Compound 270] | < 20 µM |
| N=S(=O)(CCC(c1ccc(-c2ccc(F)cc2Cl)cc1)C(F)(F)F)CC[C@H](N)C(=O)O (some centres undefined) [US20260034094, Compound 271] | < 20 µM |
| C#Cc1ccc(C(CCS(=N)(=O)CC[C@H](N)C(=O)O)C(F)(F)F)cc1 (some centres undefined) [US20260034094, Compound 272] | < 20 µM |
| N=S(=O)(CCC(c1cccc(C#Cc2ccccc2)c1)C(F)(F)F)CC[C@H](N)C(=O)O (some centres undefined) [US20260034094, Compound 273] | < 20 µM |
| N=S(=O)(CCC(c1ccc(-c2ccc(Cl)cc2)cc1)C(F)(F)F)CC[C@H](N)C(=O)O (some centres undefined) [US20260034094, Compound 277] | < 20 µM |
| N=S(=O)(CCC(c1ccc(-c2ccc(F)cc2O)cc1)C(F)(F)F)CC[C@H](N)C(=O)O (some centres undefined) [US20260034094, Compound 281] | < 20 µM |
| Cc1cc(Cl)ccc1-c1cccc(C(CCS(=N)(=O)CC[C@H](N)C(=O)O)C(F)(F)F)c1 (some centres undefined) [US20260034094, Compound 283] | < 20 µM |
| Cc1ccc(-c2cccc(C(CCS(=N)(=O)CC[C@H](N)C(=O)O)C(F)(F)F)c2)c(F)c1 (some centres undefined) [US20260034094, Compound 284] | < 20 µM |
| Cc1cccc(-c2cccc(C(CCS(=N)(=O)CC[C@H](N)C(=O)O)C(F)(F)F)c2)c1 (some centres undefined) [US20260034094, Compound 286] | < 20 µM |
| N=S(=O)(CCC(c1cccc(-c2cccc(F)c2)c1)C(F)(F)F)CC[C@H](N)C(=O)O (some centres undefined) [US20260034094, Compound 287] | < 20 µM |
| N=S(=O)(CCC(c1cccc(-c2ccc(Cl)cc2Cl)c1)C(F)(F)F)CC[C@H](N)C(=O)O (some centres undefined) [US20260034094, Compound 288] | < 20 µM |
| Cc1ccc(-c2cccc(C(CCS(=N)(=O)CC[C@H](N)C(=O)O)C(F)(F)F)c2)cc1F (some centres undefined) [US20260034094, Compound 290] | < 20 µM |

| Compound | IC50 |
| --- | --- |
| N=S(=O)(CCC(c1ccc(S(=O)(=O)Cc2ccccc2)cc1)C(F)(F)F)CC[C@H](N)C(=O)O (some centres undefined) [US20260034094, Compound 291] | < 20 µM |
| N=S(=O)(CCC(c1cccc2ccccc12)C(F)(F)F)CC[C@H](N)C(=O)O (some centres undefined) [US20260034094, Compound 311] | < 20 µM |
| N=S(=O)(CCC(c1ccccn1)C(F)(F)F)CC[C@H](N)C(=O)O (some centres undefined) [US20260034094, Compound 313] | < 20 µM |
| N=S(=O)(CCC(c1ccc(-c2ccccc2)cc1Cl)C(F)(F)F)CC[C@H](N)C(=O)O (some centres undefined) [US20260034094, Compound 315] | < 20 µM |
| N=S(=O)(CCC(c1ccc(Oc2ccccc2)cc1)C(F)(F)F)CC[C@H](N)C(=O)O (some centres undefined) [US20260034094, Compound 316] | < 20 µM |
| N=S(=O)(CCC(c1ccc(-c2ccc(Cl)cc2Cl)cn1)C(F)(F)F)CC[C@H](N)C(=O)O (some centres undefined) [US20260034094, Compound 317] | < 20 µM |
| N=S(=O)(CCC(c1ccc(Oc2ccc(Cl)cc2Cl)cc1)C(F)(F)F)CC[C@H](N)C(=O)O (some centres undefined) [US20260034094, Compound 318] | < 20 µM |
| N=S(=O)(CCC(CO)C(F)(F)F)CC[C@H](N)C(=O)O (some centres undefined) [US20260034094, Compound 320] | < 20 µM |
| N=S(=O)(CC[C@H](N)C(=O)O)CCC(O)(c1ccn(-c2ccc(Cl)cc2Cl)n1)C(F)(F)F (some centres undefined) [US20260034094, Compound 336] | < 20 µM |
| N=S(=O)(CC[C@H](N)C(=O)O)CCC(O)(c1cc(-c2ccc(Cl)cc2Cl)cs1)C(F)(F)F (some centres undefined) [US20260034094, Compound 337] | < 20 µM |
| N=S(=O)(CC[C@H](N)C(=O)O)CCC(O)([C@H]1CC[C@H](c2ccc(Cl)cc2Cl)CC1)C(F)(F)F (some centres undefined) [US20260034094, Compound 340] | < 20 µM |
| N=S(=O)(CC[C@H](N)C(=O)O)CCC(O)([C@H]1CC[C@@H](c2ccc(Cl)cc2Cl)CC1)C(F)(F)F (some centres undefined) [US20260034094, Compound 341] | < 20 µM |
| N=S(=O)(CC[C@H](N)C(=O)O)CCC(O)(c1cnc(-c2ccc(Cl)cc2Cl)cn1)C(F)(F)F (some centres undefined) [US20260034094, Compound 367] | < 20 µM |
| N=S(=O)(CCC(c1ccc2[nH]nnc2c1)C(F)(F)F)CC[C@H](N)C(=O)O (some centres undefined) [US20260034094, Compound 393] | < 20 µM |
| N=S(=O)(CCC(c1ccccc1O)C(F)(F)F)CC[C@H](N)C(=O)O (some centres undefined) [US20260034094, Compound 397] | < 20 µM |
| N=S(=O)(CCC(c1ccc2[nH]cnc2c1)C(F)(F)F)CC[C@H](N)C(=O)O (some centres undefined) [US20260034094, Compound 399] | < 20 µM |
| N=S(=O)(CC[C@H](N)C(=O)O)CCC1(c2ccc(Oc3ccc(Cl)cc3Cl)cc2)CCC1 (some centres undefined) [US20260034094, Compound 403] | < 20 µM |
| N=S(=O)(CCC(N1CCN(c2ccc(Cl)cc2Cl)CC1)C(F)(F)F)CC[C@H](N)C(=O)O (some centres undefined) [US20260034094, Compound 423] | < 20 µM |

The remaining lines, values ahead:

| IC50 | Compound |
| --- | --- |
| < 20 µM | COc1ccccc1-c1ccc(C(CCS(=N)(=O)CC[C@H](N)C(=O)O)C(F)(F)F)cc1 (some centres undefined) [US20260034094, Compound 264] |
| < 20 µM | Cc1ccccc1-c1ccc(C(CCS(=N)(=O)CC[C@H](N)C(=O)O)C(F)(F)F)cc1 (some centres undefined) [US20260034094, Compound 265] |
| < 20 µM | CC(C)c1ccccc1-c1ccc(C(CCS(=N)(=O)CC[C@H](N)C(=O)O)C(F)(F)F)cc1 (some centres undefined) [US20260034094, Compound 266] |
| < 20 µM | N=S(=O)(CCC(c1ccc(-c2ccccc2C(F)(F)F)cc1)C(F)(F)F)CC[C@H](N)C(=O)O (some centres undefined) [US20260034094, Compound 267] |
| < 20 µM | Cc1cc(Cl)ccc1-c1ccc(C(CCS(=N)(=O)CC[C@H](N)C(=O)O)C(F)(F)F)cc1 (some centres undefined) [US20260034094, Compound 275] |
| < 20 µM | Cc1cc(F)ccc1-c1ccc(C(CCS(=N)(=O)CC[C@H](N)C(=O)O)C(F)(F)F)cc1 (some centres undefined) [US20260034094, Compound 278] |
| < 20 µM | Cc1ccc(-c2ccc(C(CCS(=N)(=O)CC[C@H](N)C(=O)O)C(F)(F)F)cc2)c(Cl)c1 (some centres undefined) [US20260034094, Compound 279] |
| < 20 µM | Cc1ccc(-c2ccc(C(CCS(=N)(=O)CC[C@H](N)C(=O)O)C(F)(F)F)cc2)c(C)c1 (some centres undefined) [US20260034094, Compound 280] |
| < 20 µM | N=S(=O)(CCC(c1ccc(-c2ccc(Cl)cc2O)cc1)C(F)(F)F)CC[C@H](N)C(=O)O (some centres undefined) [US20260034094, Compound 282] |
| < 20 µM | Cc1ccc(-c2cccc(C(CCS(=N)(=O)CC[C@H](N)C(=O)O)C(F)(F)F)c2)cc1 (some centres undefined) [US20260034094, Compound 285] |
| < 20 µM | N=S(=O)(CC[C@H](N)C(=O)O)CCC(O)(c1ccc(OC2CCCCC2)cc1)C(F)(F)F (some centres undefined) [US20260034094, Compound 339] |
| < 20 µM | N=S(=O)(CC[C@H](N)C(=O)O)CCC(O)(c1ccc(Oc2ccc(Cl)cc2Cl)cc1)C(F)(F)F (some centres undefined) [US20260034094, Compound 342] |
| < 20 µM | N=S(=O)(CC[C@H](N)C(=O)O)CCC(O)(c1cnc(-c2ccc(Cl)cc2Cl)nc1)C(F)(F)F (some centres undefined) [US20260034094, Compound 366] |
| < 20 µM | N=S(=O)(CC[C@H](N)C(=O)O)CCC(O)(c1ccc2ccccc2n1)C(F)(F)F (some centres undefined) [US20260034094, Compound 373] |
| < 20 µM | Cc1ccccc1-c1ccc(C(O)(CCS(=N)(=O)CC[C@H](N)C(=O)O)C(F)(F)F)cc1 (some centres undefined) [US20260034094, Compound 429] |
| < 20 µM | Cc1cc(Cl)ccc1-c1ccc(C(O)(CCS(=N)(=O)CC[C@H](N)C(=O)O)C(F)(F)F)cc1 (some centres undefined) [US20260034094, Compound 430] |
| < 20 µM | N=S(=O)(CC[C@H](N)C(=O)O)CCC(O)(c1ccc(-c2ccc(Cl)cc2)cc1)C(F)(F)F (some centres undefined) [US20260034094, Compound 431] |
